Measured values as given in US11988734B2, “Method and application for measuring the intracellular water transmembrane efflux rate, and measurement method and system for magnetic resonance imaging biomarker of glioma” (ZHEJIANG UNIVERSITY, priority 2022, dated 2024).
Values joined by “and” are separate entries in the source; they are usually repeats but may differ in a detail not shown here. Identical values can stand only once. “Also recorded” adds a separate entry of the source.

What was measured:
U87MG cell line = assay: Water exchange DCE-MRI measurement of kio in U87MG cell line with AQP4 inhibition; type: cell-based; settings: Phase I (adaptation period), 6.4 μM TGN020, n=6
Method: In order to obtain the cell samples for MRI, U87MG (0.5˜1×10^5) or C6 (1˜2×10^6) cell lines were first washed with DPBS, disassociated by adding 1 mL of 0.25% Trypsin-EDTA solution to 60 mm dish and incubating for 0.5 to 1.0 min, and then resuspended with 2 mL PBS (or PBS supplemented with 5 mM Gadoteridol). After centrifuging the cell sample with relative centrifugal force of 150 g at 4° C. for 5 min, the sample was resuspended in a custom MR compatible glass sample tube (diameter 5 mm×length 20 mm) with 250˜300 μL PBS (or PBS+5 mM Gadoteridol). We then centrifuged the MR tubes at 300 g at 4° C. for 2 min before carrying out MRI. […]
Water exchange DCE-MRI was performed with an inversion-recovery prepared turbo-spin-echo (IR-TSE) sequence and an extracellular Gd-based contrast agent, Gadoteridol (Prohance™ Bracco Diagnostics, Inc., Princeton, NJ). […] At [CA]=5 mM, IR-TSE were measured with 13 IR delays (10 ms, 30 ms, 50 ms, 70 ms, 90 ms, 150 ms, 200 ms, 400 ms, 600 ms, 800 ms, 1 s, 5 s, 5 s) with repetition time TR varying together (TR=IR delay+5 s) and single repetition on each IR delay. […]
where R1,sm and R1,lar are the apparently smaller and larger R1, respectively, and psm, is the apparent fraction of MR signals showing R1,sm. […] For each condition (e.g., C6 at TMZ 0, 3, and 7 day), at least three samples were measured with IR-TSE at [CA]=0 mM as the baseline data. […]

C6 cells [1] = assay: Water exchange DCE-MRI measurement of intracellular water efflux rate constant kio in C6 cells; type: cell-based; settings: for kio: 50 μM TMZ, control 10.9±0.7; for decrease of kio vs control: TMZ
Method: (§1) C6 cells were treated with TMZ (50 μM) and treated with 50 μM TMZ dissolved in 0.1% DMSO […] or 0.1% DMSO in complete culture medium. The magnetic resonance parameters kio and physiological information (cell morphology, AQP4 expression, cell activity and cell migration distance) were obtained on the third and seventh days of TMZ (50 μM) treatment.
In order to obtain the cell samples for MRI, U87MG (0.5˜1×10^5) or C6 (1˜2×10^6) cell lines were first washed with DPBS, disassociated by adding 1 mL of 0.25% Trypsin-EDTA solution to 60 mm dish and incubating for 0.5 to 1.0 min, and then resuspended with 2 mL PBS (or PBS supplemented with 5 mM Gadoteridol). After centrifuging the cell sample with relative centrifugal force of 150 g at 4° C. for 5 min, the sample was resuspended in a custom MR compatible glass sample tube (diameter 5 mm×length 20 mm) with 250˜300 μL PBS (or PBS+5 mM Gadoteridol). We then centrifuged the MR tubes at 300 g at 4° C. for 2 min before carrying out MRI. For AQP4 inhibition experiments, cells were pre-cultured with 6.4 μM TGN020 (Axon, CAS 51987-99-6) dissolved in PBS for 15 mins or 1 mM ouabain (Sigma, CAS 11018-89-6) for 15 mins, respectively; the PBS in the above steps was replaced with PBS+inhibitor.
The 0.5 T desktop MRI measurement system for cell culture in vitro (Pure Devices GmbH, Germany) includes: the MRI system installed on the anti-vibration platform and the autonomous nuclear magnetic tube containing live cell precipitation from the incubator, 5% CO2+95% O2 and PBS supernatant to ensure high survival rate, and the temperature monitoring optical fiber is installed. All MRI measurements were performed at room temperature (23.5+/−1° C.).
Water exchange DCE-MRI was performed with an inversion-recovery prepared turbo-spin-echo (IR-TSE) sequence and an extracellular Gd-based contrast agent, Gadoteridol (Prohance™ Bracco Diagnostics, Inc., Princeton, NJ). The following scan parameters were used in water exchange DCE-MRI: echo time (TE) 3 ms, turbo factor 16, FOV 12.8×12.8 mm^2, matrix size 32×32. Water exchange DCE-MRI was performed with two CA concentrations, 0 and 5 mM. At [CA]=5 mM, IR-TSE were measured with 13 IR delays (10 ms, 30 ms, 50 ms, 70 ms, 90 ms, 150 ms, 200 ms, 400 ms, 600 ms, 800 ms, 1 s, 5 s, 5 s) with repetition time TR varying together (TR=IR delay+5 s) and single repetition on each IR delay. At [CA]=0 mM, the longest IR delays were extended to 10 s with TR extended simultaneously (TR=IR delay+10 s) to guarantee full recovery of the longitudinal magnetization in each TR. The scan time for a single acquisition at [CA]=0 mM and 5 mM is 10 min and 5.5 min, respectively. Two acquisitions on [CA]=5 mM were acquired and averaged.
IR-TSE signal (M) at each IR delay was taken as the average signal of the cell pellet ROI. Then the signal was subtracted and normalized by the equilibrium magnetization (M0, taken as M with the longest IR delay). We define M as the normalized signal for future SS model analysis: M=(M−M0)/M0 (1)
A two-site-exchange (2SX) SS model was used here with details as described previously ^6. Briefly, the MR signal is considered as the sum of signals of two water sites—intra- and extracellular water, each site is assumed to have a similar longitude recovery rate R1, with pi and po as the mole fraction of water molecules in the intra- and extracellular space, respectively, and pi+po=1. Then the normalized IR-TSE signal M can be described with a biexponential function, M=psmexp(−tR1,sm)+(1−psm)exp(−tR1,lar) (2)
where R1,sm and R1,lar are the apparently smaller and larger R1, respectively, and psm, is the apparent fraction of MR signals showing R1,sm. The three parameters, R1,sm, R1,lar and psm, are determined by […] physical parameters including pi, the intracellular water efflux rate constant (kio), and the R1 of intracellular water (R1i), and the CA-dependent extracellular water R1 (R1o). […]

AQP4 [2] = target: T1, AQP4 (Rattus norvegicus, UniProt P47863); assay: Pharmacological inhibition of AQP4 in subcutaneous rat glioma model (C6), in vivo water exchange DCE-MRI
T1 construct: C6 cell line was subcutaneously implanted into the right leg of Sprague Dawley (SD) rats to establish a glioma animal model; from tissue; host or cells: Subcutaneous C6 glioma tumour in Sprague Dawley rats (in vivo)
T1 sequence (P47863 whole entry): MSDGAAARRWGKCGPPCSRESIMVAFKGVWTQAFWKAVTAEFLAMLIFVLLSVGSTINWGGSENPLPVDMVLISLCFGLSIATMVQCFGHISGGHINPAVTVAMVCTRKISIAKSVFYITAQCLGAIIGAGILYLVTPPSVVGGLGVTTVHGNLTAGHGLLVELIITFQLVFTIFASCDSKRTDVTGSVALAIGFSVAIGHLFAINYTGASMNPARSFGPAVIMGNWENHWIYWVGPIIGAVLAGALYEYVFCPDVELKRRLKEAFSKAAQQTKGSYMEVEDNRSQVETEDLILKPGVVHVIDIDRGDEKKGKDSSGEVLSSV
Method: All experimental protocols for animal studies were approved by the Animal Experimentation Committee of Zhejiang University. Adult (7˜8-week-old) male Sprague Dawley (SD) rats were obtained from the Laboratory Animal Center of Zhejiang University. During glioma cell introduction, rats were anesthetized with a mixture of 2% (v/v) isoflurane in air (R500IE, RWD Life Science Co., Ltd,), and then 100 μl PBS containing 5×10^6 C6 cells and 1% antibiotics (P/S) were slowly injected under the skin at the right leg. Seven to nine days after tumour implementation, the animals were taken for 7 T MRI test and the tumour was quickly removed after and fixed for IHC after MRI.
Here TGN020 was used to inhibit AQP4 in rat glioma model. For TGN020 group, each animal was treated with TGN020 (3 mg/kg, 4 ml/kg body weight) in the tail vein 15 minutes before water exchange DCE-MRI. In order to increase the solubility, before intravenous injection, TGN020 was repeatedly ultrasound and vortex at 37° C. to promote dissolution and dispersion in saline (0.9% NaCl). One day before TGN020 treatment, the same animal was treated with normal saline (4 ml/kg), and then water exchange DCE-MRI data collection was performed. In the control group, animals were treated with the same volume of normal saline on the first day and the second day. Here, the small volume infusion needs to be flushed after infusion to ensure the safety and treatment effect of rats.
In vivo water exchange DCE-MRI is achieved through clinical use of Gd-based CA (dimethylamine gadolinate, Guangzhou, China). In order to better estimate kio, the invention uses the method of two injections of CA, which improves the accuracy of kio estimation by 10 times compared with the traditional method of single injection of contrast agent. In addition, the steady-state multi-gradient echo (MGE) sequence is used to overcome the potential T2* artifacts caused by contrast agents. […] Finally, the fitting error of SS model is carefully analyzed to remove kio with large fitting error.

AQP4 [3] = assay: AQP4 expression (immunofluorescence, fluorescence intensity rfu) in C6 cell line during TMZ treatment; type: cell-based; settings: C6 cells, 50 μM TMZ
Method: as §1
After the MRI tests, the cell line sample was immediately fixed by 4% paraformaldehyde (PFA) at room temperature for 20 min, then stored in 0.5% PFA (4° C.). For immunofluorescence (IF) testing, protocols following: samples were (1) blocked with 10% goat serum (Beyotime, CO265) for one hour at room temperature; (2) incubated with primary antibody overnight at 4° C. and the secondary antibody at room temperature for 1 h; (3) stained with DAPI (4′,6-diamidino-2-phenylindole, Sigma-Aldrich, 1:1000) at room temperature for 5 min; and (4) washed three times with PBS. […] Data were collected from two fluorescence channels: one in which DAPI was characterized with excitation/emission wavelengths 375 nm/435 to 485 nm and the other with either […] (excitation/emission 470 nm/514 to 567 nm) or green (excitation/emission 525 nm/565 to 650 nm) channels. Fluorescence images were taken from either a Fluorescence Inversion Microscope System (cellSensV1.13, Olympus, Japan) or a confocal laser scanning microscope (fv1200, Olympus, Japan).

C6 cells [4] = assay: Slow cycling cell (SCC) fraction by OG cell tracer in C6 cells; type: cell-based; settings: before TMZ 6.0 (±0.4)%
Source text: The present invention uses the method of cell tracer to distinguish FCC and SCC. The OG (Oregon Green 488 Carboxylic Acid Diacetate, Succinimidyl Ester) and CTV (CellTrace™ Violet reagent, ThermoFisher scientific, Invitrogen C34557) were used to distinguish FCCs (low OG or CTV intensity) and SCCs (high OG or CTV intensity, e.g., the CTV intensity>10^4) in C6 cell lines and human glioma primary cell culture, respectively. Populations of FCCs and SCCs were identified and isolated in cell cultures based on their capacity to retain OG or CTV. Briefly, the cells were first suspended in PBS containing 25 μM OG and incubated in the dark at 37° C. for 10 min. After incubation, cell samples were washed in DMEM to remove residual dye and then returned to the culturing medium for three days until imaging. Before fluorescence imaging, samples were fixed in 4% PFA for 30 min and then stained with DAPI. The fraction of SCCs was defined as the fraction of OG positive cells in the DAPI positive cells. For primary human glioma primary cell cultures, the cells were stained with 5 μM CTV (the same methods as OG) for three days. Then, the cells fluorescence intensity statistics and counts were measured by a Fluorescence Activating Cell Sorter System (FACS) (LSRFortessa X-20, BD, USA).

| average kio of the whole tumor (AQP4 [2]; TGN020 3 mg/kg tail vein 15 min before DCE-MRI, n=9, saline 6.3±0.6, 3 mg/kg) | decrease of average kio of the whole tumor (AQP4 [2]; TGN020 3 mg/kg vs saline in same animal, n=9, p=0.0246) | average K^trans of the whole tumor (AQP4 [2]; TGN020 3 mg/kg, saline 0.060±0.015) | Structure (SMILES) | effect of AQP4 inhibition on kio (U87MG cell line) | effect of AQP4 inhibition on kio (C6 cells [1]; C6 cells on 7th day of TMZ treatment, 6.4 μM TGN020) | decrease of AQP4 expression level, fluorescence intensity (rfu) (AQP4 [3]; seventh day of treatment) | decrease of AQP4 expression level, fluorescence intensity (rfu) (AQP4 [3]; third day of treatment) | kio (C6 cells [1]; C6 cells, seventh day of treatment, n=7) | kio (C6 cells [1]; C6 cells, third day of treatment, n=6) | decrease of kio (absolute) (C6 cells [1]; C6 cells, 7th day of TMZ treatment vs control) | decrease of kio vs control (C6 cells [1]; C6 cells, seventh day) | decrease of kio vs control (C6 cells [1]; C6 cells, third day) | proportion of SCC (OG+) (C6 cells [4]; seventh day of TMZ treatment) | proportion of SCC (OG+) (C6 cells [4]; third day of TMZ treatment) |
| --- | --- | --- | --- | --- | --- | --- | --- | --- | --- | --- | --- | --- | --- | --- |
| 5 ± 0.7 s⁻¹ and 3.5 ± 0.7 s⁻¹ | 43% | 0.045 ± 0.024 min⁻¹ | O=C(Nc1nncs1)c1cccnc1 [TGN020] | will not lead to a significant decrease in kio; also recorded: will not lead to further reduction of kio | could not further reduce kio; also recorded: did not lead to further reduction of kio | – | – | – | – | – | – | – | – | – |
| – | – | – | Cn1nnc2c(C(N)=O)ncn2c1=O [TMZ, temozolomide] | – | – | 85.9% | 42.5% | 5.8 ± 0.2 s⁻¹ | 6.7 ± 0.8 s⁻¹ | 4.9 s⁻¹ | 45.5% | 37.3% | 28.9 (±0.3) % | 16.0 (±0.1) % |
